These molecules were tested against T1, human IKK-β (Homo sapiens, UniProt O14920) (assay: IKK-β kinase inhibitory assay). Conditions: compounds as yielded by solid phase synthesis, purity about 40 to 90%, read-out: In vitro activity grade (In vitro IC50).
T1 construct: A cDNA fragment encoding human IKK-β open reading frame was generated by PCR; His tag (from pcDNA3.1/His C); made in house; host or cells: Sf21 insect cells (baculovirus); substrate made in E. coli
T1 sequence (O14920 1-756): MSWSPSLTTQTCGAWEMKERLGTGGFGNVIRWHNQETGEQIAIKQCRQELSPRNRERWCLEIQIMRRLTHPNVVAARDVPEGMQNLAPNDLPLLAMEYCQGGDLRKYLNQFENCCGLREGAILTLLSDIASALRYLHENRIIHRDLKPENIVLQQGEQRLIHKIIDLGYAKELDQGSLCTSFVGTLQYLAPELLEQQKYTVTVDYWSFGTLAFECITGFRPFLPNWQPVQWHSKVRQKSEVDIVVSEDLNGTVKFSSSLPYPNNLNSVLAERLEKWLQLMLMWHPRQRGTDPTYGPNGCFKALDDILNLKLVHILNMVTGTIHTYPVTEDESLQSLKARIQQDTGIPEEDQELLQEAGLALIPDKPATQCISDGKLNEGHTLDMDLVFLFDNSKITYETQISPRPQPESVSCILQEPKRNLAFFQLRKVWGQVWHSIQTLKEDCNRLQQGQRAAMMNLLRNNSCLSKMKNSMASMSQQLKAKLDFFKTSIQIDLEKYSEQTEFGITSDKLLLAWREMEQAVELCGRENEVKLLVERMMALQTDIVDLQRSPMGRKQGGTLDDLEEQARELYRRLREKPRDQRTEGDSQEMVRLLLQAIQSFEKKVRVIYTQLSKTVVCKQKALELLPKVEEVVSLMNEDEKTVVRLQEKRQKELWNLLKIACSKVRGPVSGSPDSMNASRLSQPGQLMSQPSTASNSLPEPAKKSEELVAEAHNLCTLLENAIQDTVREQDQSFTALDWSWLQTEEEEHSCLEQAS
Type: biochemical
How it was run: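 Radiometric read-out: streptavidin capture of 33P-labelled bio-GST-IκBα(1-54), 0.2 μM, after a 2 h room-temperature reaction started with ATP/[γ-33P]ATP. Enzyme was recombinant His-tagged human IKK-β expressed in Sf21 insect cells, used at 0.6 μg/ml in Tris-HCl pH 7.6/MgCl2 kinase buffer. Compounds added in 2.5% DMSO.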
In the case of `NC(=O)NCc1c(C2CCCNC2)cc(-c2c(O)cccc2OCC2CC2)nc1N` (centres unmarked) [Example 23-13], the IC50 is reported as < 500 nM.
For `Nc1nc(-c2c(O)cccc2OCC2CC2)cc(C2CCCNC2)c1CNC(=O)Nc1ccccc1` (centres unmarked) [Example 23-14], the IC50 was < 500 nM.
With `Nc1nc(-c2c(O)cccc2OCC2CC2)cc(C2CCCNC2)c1CNC(=S)Nc1ccccc1` (centres unmarked) [Example 23-15] the IC50 was < 500 nM.
With `CC(C)OC(=O)N1Cc2c(C3CCCNC3)cc(-c3c(O)cccc3OCC3CC3)nc2NC1=O` (centres unmarked) [Example 24-05] the IC50 was < 500 nM.
With `CC(C)COC(=O)N1Cc2c(C3CCCNC3)cc(-c3c(O)cccc3OCC3CC3)nc2NC1=O` (centres unmarked) [Example 24-06] the IC50 was < 500 nM.
In the case of `CC(C)(C)COC(=O)N1Cc2c(C3CCCNC3)cc(-c3c(O)cccc3OCC3CC3)nc2NC1=O` (centres unmarked) [Example 24-07], the IC50 is reported as < 500 nM.
`CN(C)C(=O)N1Cc2c(C3CCCNC3)cc(-c3c(O)cccc3OCC3CC3)nc2NC1=O` (centres unmarked) [Example 24-08] was tested, and the IC50 was < 500 nM.
`NC(=O)N1Cc2c(C3CCCNC3)cc(-c3c(O)cccc3OCC3CC3)nc2NC1=O` (centres unmarked) [Example 24-10] was tested, and the IC50 was < 500 nM.

Reference: patent US6984649B1, “Pyridine derivatives” (Bayer Aktiengesellschaft, priority 2000, dated 2006)
